Measured values published in PubChem BioAssay (NCI).
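Test compounds were applied to cells in 96-well plates for 48 hours at 5 doses. The concentration for 50% growth inhibition is given as GI50. TGI is the concentration that stops growth completely.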

Tests used:
Experiment in all cases: NCI-60 cell line screen, 48 h
786-0 renal = test system: 786-0 renal
A498 renal = test system: A498 renal
A549 NSCLC = test system: A549 NSCLC
ACHN renal = test system: ACHN renal
BT-549 breast = test system: BT-549 breast
CAKI-1 renal = test system: CAKI-1 renal
CCRF-CEM leukemia = test system: CCRF-CEM leukemia
COLO 205 colon = test system: COLO 205 colon
DU-145 prostate = test system: DU-145 prostate
EKVX NSCLC = test system: EKVX NSCLC
HCC-2998 colon = test system: HCC-2998 colon
HCT-116 colon = test system: HCT-116 colon
HCT-15 colon = test system: HCT-15 colon
HL-60(TB) leukemia = test system: HL-60(TB) leukemia
HOP-62 NSCLC = test system: HOP-62 NSCLC
HOP-92 NSCLC = test system: HOP-92 NSCLC
HS 578T breast = test system: HS 578T breast
HT29 colon = test system: HT29 colon
IGROV1 ovarian = test system: IGROV1 ovarian
K-562 leukemia = test system: K-562 leukemia
KM12 colon = test system: KM12 colon
LOX IMVI melanoma = test system: LOX IMVI melanoma
M14 melanoma = test system: M14 melanoma
MALME-3M melanoma = test system: MALME-3M melanoma
MCF7 breast = test system: MCF7 breast
MDA-MB-231 breast = test system: MDA-MB-231 breast
MOLT-4 leukemia = test system: MOLT-4 leukemia
NCI-H226 lung = test system: NCI-H226 lung
NCI-H23 lung = test system: NCI-H23 lung
NCI-H460 lung = test system: NCI-H460 lung
NCI-H522 lung = test system: NCI-H522 lung
NCI/ADR-RES ovarian = test system: NCI/ADR-RES ovarian
OVCAR-3 ovarian = test system: OVCAR-3 ovarian
OVCAR-4 ovarian = test system: OVCAR-4 ovarian
OVCAR-5 ovarian = test system: OVCAR-5 ovarian
OVCAR-8 ovarian = test system: OVCAR-8 ovarian
PC-3 prostate = test system: PC-3 prostate
RPMI-8226 leukemia = test system: RPMI-8226 leukemia
RXF 393 renal = test system: RXF 393 renal
SF-268 CNS = test system: SF-268 CNS
SF-295 CNS = test system: SF-295 CNS
SF-539 CNS = test system: SF-539 CNS
SK-MEL-2 melanoma = test system: SK-MEL-2 melanoma
SK-MEL-28 melanoma = test system: SK-MEL-28 melanoma
SK-MEL-5 melanoma = test system: SK-MEL-5 melanoma
SK-OV-3 ovarian = test system: SK-OV-3 ovarian
SN12C renal = test system: SN12C renal
SNB-19 CNS = test system: SNB-19 CNS
SNB-75 CNS = test system: SNB-75 CNS
SR leukemia = test system: SR leukemia
SW-620 colon = test system: SW-620 colon
T-47D breast = test system: T-47D breast
TK-10 renal = test system: TK-10 renal
U251 CNS = test system: U251 CNS
UACC-257 melanoma = test system: UACC-257 melanoma
UACC-62 melanoma = test system: UACC-62 melanoma
UO-31 renal = test system: UO-31 renal

With `COc1cc(C(=O)N2CCN(c3ccccc3)CC2)c2ccccc2n1` the GI50 (786-0 renal) was 127 nM, the TGI (786-0 renal) was > 100000 nM and the GI50 (A498 renal) was 22.6 nM. The TGI (A498 renal) was 357 nM, the GI50 (A549 NSCLC) was 101 nM and the TGI (A549 NSCLC) was > 100000 nM. For the same compound, the GI50 (ACHN renal) was 382 nM, the TGI (ACHN renal) was > 100000 nM and the GI50 (BT-549 breast) was 475 nM. For the same compound, the TGI (BT-549 breast) was > 100000 nM, the GI50 (CAKI-1 renal) was 43 nM and the TGI (CAKI-1 renal) was > 22500 nM. For the same compound, the GI50 (CCRF-CEM leukemia) was 128 nM, the TGI (CCRF-CEM leukemia) was > 100000 nM and the GI50 (COLO 205 colon) was 62.3 nM. It also gave a TGI (COLO 205 colon) of 659 nM, a GI50 (DU-145 prostate) of 64.8 nM and a TGI (DU-145 prostate) of 468 nM. The GI50 (EKVX NSCLC) was 243 nM, the TGI (EKVX NSCLC) was > 100000 nM and the GI50 (HCC-2998 colon) was 69.6 nM. The TGI (HCC-2998 colon) was 486 nM, the GI50 (HCT-116 colon) was 55 nM and the TGI (HCT-116 colon) was 28100 nM. For the same compound, the GI50 (HCT-15 colon) was 149 nM, the TGI (HCT-15 colon) was > 100000 nM and the GI50 (HL-60(TB) leukemia) was 110 nM. The GI50 (HOP-62 NSCLC) was 119 nM, the TGI (HOP-62 NSCLC) was > 100000 nM and the GI50 (HOP-92 NSCLC) was 1470 nM. The TGI (HOP-92 NSCLC) was 29200 nM, the GI50 (HS 578T breast) was 38.7 nM and the TGI (HS 578T breast) was 387 nM. The GI50 (HT29 colon) was 41 nM, the TGI (HT29 colon) was 10300 nM and the GI50 (IGROV1 ovarian) was 96.5 nM. For the same compound, the TGI (IGROV1 ovarian) was > 100000 nM, the GI50 (K-562 leukemia) was 78.2 nM and the TGI (K-562 leukemia) was > 100000 nM. It also gave a GI50 (KM12 colon) of 41.2 nM, a TGI (KM12 colon) of 5190 nM and a GI50 (LOX IMVI melanoma) of 86 nM. For the same compound, the TGI (LOX IMVI melanoma) was > 52000 nM, the GI50 (M14 melanoma) was 58.2 nM and the TGI (M14 melanoma) was 805 nM. For the same compound, the GI50 (MALME-3M melanoma) was 48.4 nM, the TGI (MALME-3M melanoma) was > 100000 nM and the GI50 (MCF7 breast) was 38.6 nM. The TGI (MCF7 breast) was > 100000 nM, the GI50 (MDA-MB-231 breast) was 301 nM and the TGI (MDA-MB-231 breast) was > 25200 nM. The GI50 (MOLT-4 leukemia) was 863 nM, the TGI (MOLT-4 leukemia) was > 100000 nM and the GI50 (NCI-H226 lung) was 12700 nM. For the same compound, the TGI (NCI-H226 lung) was > 100000 nM, the GI50 (NCI-H23 lung) was 225 nM and the TGI (NCI-H23 lung) was > 100000 nM. For the same compound, the GI50 (NCI-H460 lung) was 48.1 nM, the TGI (NCI-H460 lung) was 4100 nM and the GI50 (NCI-H522 lung) was 32.4 nM. The TGI (NCI-H522 lung) was 475 nM, the GI50 (NCI/ADR-RES ovarian) was 36.1 nM and the TGI (NCI/ADR-RES ovarian) was 176 nM. It also gave a GI50 (OVCAR-3 ovarian) of 24.1 nM, a TGI (OVCAR-3 ovarian) of 68.7 nM and a GI50 (OVCAR-4 ovarian) of 4270 nM. For the same compound, the TGI (OVCAR-4 ovarian) was > 100000 nM, the GI50 (OVCAR-5 ovarian) was 586 nM and the TGI (OVCAR-5 ovarian) was > 100000 nM. The GI50 (OVCAR-8 ovarian) was 248 nM, the TGI (OVCAR-8 ovarian) was > 23800 nM and the GI50 (PC-3 prostate) was 84.6 nM. For the same compound, the TGI (PC-3 prostate) was > 100000 nM, the GI50 (RPMI-8226 leukemia) was 247 nM and the TGI (RPMI-8226 leukemia) was > 100000 nM. The GI50 (RXF 393 renal) was 92.7 nM, the TGI (RXF 393 renal) was > 100000 nM and the GI50 (SF-268 CNS) was 200 nM. The TGI (SF-268 CNS) was > 100000 nM, the GI50 (SF-295 CNS) was 27.6 nM and the TGI (SF-295 CNS) was 115 nM. The GI50 (SF-539 CNS) was 97.3 nM, the GI50 (SK-MEL-2 melanoma) was 432 nM and the TGI (SK-MEL-2 melanoma) was > 100000 nM. The GI50 (SK-MEL-28 melanoma) was > 100000 nM, the TGI (SK-MEL-28 melanoma) was > 100000 nM and the GI50 (SK-MEL-5 melanoma) was 54.1 nM. For the same compound, the TGI (SK-MEL-5 melanoma) was 9420 nM, the GI50 (SK-OV-3 ovarian) was 99.3 nM and the TGI (SK-OV-3 ovarian) was > 100000 nM. For the same compound, the GI50 (SN12C renal) was 485 nM, the TGI (SN12C renal) was > 100000 nM and the GI50 (SNB-19 CNS) was 929 nM. The TGI (SNB-19 CNS) was > 100000 nM, the GI50 (SNB-75 CNS) was 40.2 nM and the GI50 (SR leukemia) was 53.7 nM. The TGI (SR leukemia) was > 100000 nM, the GI50 (SW-620 colon) was 52.6 nM and the TGI (SW-620 colon) was > 100000 nM. For the same compound, the GI50 (T-47D breast) was 53 nM, the TGI (T-47D breast) was > 100000 nM and the GI50 (TK-10 renal) was 287 nM. The TGI (TK-10 renal) was > 100000 nM, the GI50 (U251 CNS) was 95.5 nM and the TGI (U251 CNS) was > 100000 nM. For the same compound, the GI50 (UACC-257 melanoma) was 108 nM, the TGI (UACC-257 melanoma) was > 100000 nM and the GI50 (UACC-62 melanoma) was 48.2 nM. For the same compound, the TGI (UACC-62 melanoma) was > 100000 nM, the GI50 (UO-31 renal) was 87.5 nM and the TGI (UO-31 renal) was > 83700 nM.

With `CC(C)(C)[Si](C)(C)OCC1OC(n2cc(I)c(=O)[nH]c2=O)C(O[Si](C)(C)C(C)(C)C)C1O[Si](C)(C)C(C)(C)C` (stereo not given) the TGI (A549 NSCLC) was 26100 nM, the TGI (ACHN renal) was 28500 nM and the TGI (BT-549 breast) was 50700 nM. The TGI (COLO 205 colon) was 53700 nM, the TGI (EKVX NSCLC) was 45600 nM and the TGI (HCT-15 colon) was > 100000 nM. For the same compound, the TGI (HOP-62 NSCLC) was 39800 nM, the TGI (HOP-92 NSCLC) was 56200 nM and the TGI (HS 578T breast) was 57200 nM. For the same compound, the TGI (HT29 colon) was 37000 nM, the TGI (IGROV1 ovarian) was 38100 nM and the TGI (LOX IMVI melanoma) was 35200 nM. For the same compound, the TGI (M14 melanoma) was 45400 nM, the TGI (MALME-3M melanoma) was > 100000 nM and the TGI (MCF7 breast) was 29400 nM. For the same compound, the TGI (MDA-MB-231 breast) was 37400 nM, the TGI (MOLT-4 leukemia) was > 100000 nM and the TGI (NCI-H226 lung) was 48000 nM. For the same compound, the TGI (NCI-H460 lung) was 36800 nM, the TGI (NCI-H522 lung) was 25200 nM and the TGI (NCI/ADR-RES ovarian) was > 100000 nM. For the same compound, the TGI (OVCAR-3 ovarian) was 28000 nM, the TGI (OVCAR-4 ovarian) was > 100000 nM and the TGI (OVCAR-5 ovarian) was 45700 nM. For the same compound, the TGI (OVCAR-8 ovarian) was 29100 nM, the TGI (PC-3 prostate) was 43100 nM and the TGI (SF-268 CNS) was 43000 nM. It also gave a TGI (SF-295 CNS) of 36800 nM, a TGI (SK-MEL-5 melanoma) of 31400 nM and a TGI (SK-OV-3 ovarian) of 75400 nM. For the same compound, the TGI (SN12C renal) was > 100000 nM, the TGI (SNB-19 CNS) was 43200 nM and the TGI (SNB-75 CNS) was 33000 nM. For the same compound, the TGI (SR leukemia) was > 100000 nM, the TGI (SW-620 colon) was 41400 nM and the TGI (T-47D breast) was 47600 nM. For the same compound, the TGI (UACC-257 melanoma) was 67600 nM, the TGI (UACC-62 melanoma) was 35400 nM and the TGI (UO-31 renal) was 50200 nM.
